From US20050238580A1 (priority 2002, published 2005)

Assays:
Format in all cases: in vivo
[1] = Gastrointestinal tolerability of the oral intake of 4-galactosyl-xylose in adult human volunteers
intestinal lactase [2] = molecular target: T1, intestinal lactase (Homo sapiens, UniProt P09848); assay: Excretion of xylose in urine of adult human volunteers after oral 4-galactosyl-xylose, colorimetric titration with fluoroglucinol
T1 construct: from tissue; host or cells: small-intestinal mucous membrane of living adult human volunteers (in vivo)
T1 sequence (P09848 869-1927): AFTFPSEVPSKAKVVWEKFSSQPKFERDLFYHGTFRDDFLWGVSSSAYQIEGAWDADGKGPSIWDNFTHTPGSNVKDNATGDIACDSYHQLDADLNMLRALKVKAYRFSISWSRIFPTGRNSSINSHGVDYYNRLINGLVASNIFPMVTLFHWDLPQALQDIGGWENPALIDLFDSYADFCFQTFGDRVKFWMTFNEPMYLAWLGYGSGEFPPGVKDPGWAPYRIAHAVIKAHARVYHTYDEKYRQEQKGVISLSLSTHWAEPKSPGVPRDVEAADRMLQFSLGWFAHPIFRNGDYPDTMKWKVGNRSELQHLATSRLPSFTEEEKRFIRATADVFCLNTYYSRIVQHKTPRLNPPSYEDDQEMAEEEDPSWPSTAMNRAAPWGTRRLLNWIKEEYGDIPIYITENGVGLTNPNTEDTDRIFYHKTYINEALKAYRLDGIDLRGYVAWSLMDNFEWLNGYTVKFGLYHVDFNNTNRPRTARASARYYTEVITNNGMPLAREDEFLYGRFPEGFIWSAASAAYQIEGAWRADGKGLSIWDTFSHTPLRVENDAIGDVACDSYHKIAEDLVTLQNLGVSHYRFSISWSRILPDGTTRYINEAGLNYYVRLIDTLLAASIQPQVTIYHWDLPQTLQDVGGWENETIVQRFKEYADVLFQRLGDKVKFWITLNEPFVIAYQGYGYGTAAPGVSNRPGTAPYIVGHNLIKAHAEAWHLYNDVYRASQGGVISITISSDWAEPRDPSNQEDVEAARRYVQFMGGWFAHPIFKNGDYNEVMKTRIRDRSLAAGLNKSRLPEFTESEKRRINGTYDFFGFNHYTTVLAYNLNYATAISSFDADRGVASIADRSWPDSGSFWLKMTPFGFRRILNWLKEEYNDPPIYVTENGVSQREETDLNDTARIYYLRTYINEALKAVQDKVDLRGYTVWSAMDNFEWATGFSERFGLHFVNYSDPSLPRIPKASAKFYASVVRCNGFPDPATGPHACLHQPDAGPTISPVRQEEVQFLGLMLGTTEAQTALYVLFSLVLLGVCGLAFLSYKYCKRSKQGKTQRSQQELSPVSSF
Description: The methodology consists of the oral administration of an aqueous solution of 4-galactosyl-xylose to humans after at least 8 hours of fasting. The amount of xylose present in the urine excreted is evaluated as of then, after a specific period of time. The methodology can be carried out likewise by evaluating the presence of xylose in blood evaluating it in plasma, or blood serum, prepared from a blood sample extracted after a period of time, after the intake of the disaccharide. The titration of xylose can be done by means of calorimetric analysis based on the reaction with fluoroglucinol and using as a target, either the basal urine or else the basal plasma or the basal blood serum, depending on the methodology that is used. Once the intake of 4-galactosyl-xylose has taken place, it is hydrolyzed by the intestinal lactase, in such a way that the products of this enzymatic reaction, galactose and xylose, are absorbed into the blood through the intestinal mucous membrane.
4-galactosyl-xylose is an in vivo substrate of human intestinal lactase. This has been shown in the first place by orally administering 1 g of 4-galactosyl-xylose dissolved in 50 ml of water to an adult volunteer (individual 1) who had fasted for 8 hours and with a normal tolerance to milk and milk products, in other words, with lactose tolerance. A basal urine sample was taken from this individual immediately before the intake of 4-galactosyl-xylose and urine was again collected after the intake thereof every hour for 8 hours, each sample showing the total urine excreted in each period of time. Xylose was titrated in all the samples by means of calorimetric analysis based on the reaction with fluoroglucinol and using basal urine as the target. […] The results of this experiment appear compiled in FIG. 3, where the amount of xylose evaluated in each sample is represented (white circles) and the amount of xylose that is being accumulated in urine over time is represented (black circles), calculated by adding to the amount of xylose evaluated in each sample, the amounts evaluated in all the preceding samples. In […] one can see: 1) That xylose is excreted in the urine of this individual after oral administration of 4-galactosyl-xylose; 2) That the excretion of xylose in urine was maximum after 2 hours and it was progressively accumulated in the urine after administration of this compound.
Excretion of xylose in urine by adult human volunteers with lactose tolerance varies according to the amount of the 4-galactosyl-xylose intake. This has been shown by administering 0.25 g, 0.5 g and 3 g of 4-galactosyl-xylose to an adult volunteer with lactose tolerance (individual 1, Example 4) and to an adult volunteer with lactose tolerance (individual 2, Example 5) under the same conditions as those described in Example 1 and likewise titrating xylose calorimetrically with fluoroglucinol in the urine excreted by both volunteers over time after the intake of the disaccharide. A free period of around one week was left between each intake of 4-galactosyl-xylose by the same individual. […] The results of these experiments are compiled in FIG. 4 panel A (for individual 1 and Example 4) and in FIG. 4 panel B (for individual 2 and Example 5), wherein the amount of xylose accumulated in urine after the intake of 4-galactosyl-xylose for each administered dose is represented. FIG. 4A includes the data obtained with the same individual after an intake of 1 g of the disaccharide coming from FIG. 3 so that a comparison can be made with the rest of the administered doses. In these FIGS. 4A and 4B one can see: 1) That the excretion of xylose in urine over time after the intake of 4-galactosyl-xylose increased as the amount administered to individual 1 (FIG. 4A), as well as to individual 2 (FIG. 4B) increased; That a dose of 0.25 g 4-galactosyl-xylose permitted easy detection of the presence of xylose in urine in either of these two individuals. […]

intestinal lactase [3] = molecular target: T1, intestinal lactase; assay: Xylose in urine of human volunteers after oral 4-galactosyl-xylose, evaluated by gas chromatography; conditions: 0.25 g oral
Text: Excretion of xylose in urine after administration of 0.25 g of 4-galactose-xylose to subjects with lactose tolerance, and its reduction in hypolactasic individuals with lactose intolerance is likewise observed by the evaluation technique of xylose different from the colorimetric reaction with fluoroglucinol. This has been shown by administering 0.25 g of 4-galactosyl-xylose to a volunteer with lactose tolerance [individual 1 (also studied in Example 3), Example 15] on one hand, and on the other hand, to a volunteer with lactose intolerance having an intense intestinal lactase deficiency [individual 12 (also studied in Example 12), Example 16], and evaluating xylose by gas chromatography in the total urine collected 3 hours after the intake of the disaccharide with a chromatograph equipped with a flame ionization detector and a 12 m long glass spiral column with an inside diameter of 0.2 mm and a thickness of 0.3 μm. The presence of xylose in urine was detected in its trimethylsilyl derivative form. For this purpose the urine sample was lyophilized and dissolved in 20 μl of pyridine containing 1 mM of benzyl-β-D-xylopyranoside as an internal reference. Then another 20 μl of N-trimethylsilyl imidazole were added as a sililating agent. The mixture was treated with ultrasound for one minute and heated at 60° C. for 30 minutes. Then 1-2 μl of the sample was injected into the gas chromatograph. The temperature of the injector and the detector used was 250° C. and the temperature gradient in the column was the following: 2 minutes at 180° C. and a 5° C. increase per minute until 250° C. was reached. This temperature was maintained for 15 minutes. The concentration of xylose in each sample was calculated from the areas of the peaks corresponding to the chromatograms. The results of these experiments are compiled in FIG. 7, wherein the chromatograms corresponding to the samples of basal urine and of urine taken during 3 hours from an individual with lactose tolerance and an individual with lactose intolerance are shown. […]

reduction of xylose in urine, individual 12 versus individual 1 (intestinal lactase [3]; urine of 3 hours): 92%
Structure (SMILES): OCC1O[C@@H](O[C@@H]2COC(O)C(O)[C@H]2O)C(O)[C@@H](O)[C@H]1O (some centres unmarked)
gastrointestinal discomfort or disorders ([1]; 8 adult volunteers with lactose tolerance, 0.25 g oral): did not cause any gastrointestinal discomfort or disorder
gastrointestinal discomfort or disorders ([1]; individual 1 with lactose tolerance, 1 g oral): did not cause any gastrointestinal discomfort or disorders
gastrointestinal discomfort or disorders ([1]; individual 12 with lactose intolerance and two individuals with lactose tolerance, 3 g oral): did not result in any gastrointestinal discomfort or disorder
gastrointestinal discomfort or disorders ([1]; individual 13, allergy to milk components, 0.25 g oral): did not cause any gastrointestinal discomfort or disorder
gastrointestinal discomfort or disorders ([1]; individuals 1 and 2 with lactose tolerance, 0.25 g, 0.5 g and 3 g oral): did not cause any gastrointestinal discomfort or any disorder
gastrointestinal discomfort or disorders ([1]; individuals 12 and 5 with lactose intolerance, 0.25 g oral): did not cause any gastrointestinal discomfort or disorders
total xylose in urine 8 hours after intake, average value (intestinal lactase [2]; female volunteers with lactose tolerance, 0.25 g oral): 23.5 ± 2.0 mg
reduction of xylose in urine versus average of tolerant females (intestinal lactase [2]; individual 5, 0.25 g oral, 8 hours): 83%
total xylose in urine 8 hours after intake (intestinal lactase [2]; individual 5, person with lactose intolerance from birth, 0.25 g oral): 4.08 mg
reduction of xylose in urine versus average of tolerant males (intestinal lactase [2]; individual 12, 0.25 g oral, 8 hours): 96%
total xylose in urine 8 hours after intake (intestinal lactase [2]; individual 12, hypolactasic person with lactose intolerance, 0.25 g oral): 1.33 mg
total xylose excreted in urine after 8 hours (intestinal lactase [2]; individual 13, person with allergy to milk components, 0.25 g oral): the same total amount as the average of females with lactose tolerance
dose dependence of excretion of xylose in urine (intestinal lactase [2]; individuals 1 and 2 with lactose tolerance, oral doses of 0.25 g, 0.5 g, 1 g and 3 g): increased with the amount
total xylose in urine 8 hours after intake, average value (intestinal lactase [2]; male volunteers with lactose tolerance, 0.25 g oral): 35.7 ± 2.0 mg
total amount of xylose in urine of 3 hours (intestinal lactase [3]; hypolactasic individual 12 with lactose intolerance): 2.1 mg
total xylose in urine of 3 hours (intestinal lactase [3]; individual 1 with lactose tolerance): 25.2 mg
